What follows are compounds tested on human whole blood (assay: Human Whole Blood (HWB) Assay, inhibition of T cell IL-2 production). Conditions: IL-2 in plasma, human whole blood stimulated with 10 μM Thapsigargin overnight, AlphaLISA.
Format: cell-based
Procedure: Human Whole Blood (HWB) Assay
Inhibition of T cell IL-2 production CRAC compounds were tested in human whole blood from normal donors. 200 μl of human whole blood was aliquoted into each well of a round bottom 96 well plate. Concentration-response curves were generated for test compounds and CsA (as controls) by performing serial dilutions of the compounds and incubating each concentration in a single well for 30 min (experiment was performed in triplicate). Following incubation, the blood was stimulated with 10 μM Thapsigargin (SIGMA) overnight at 37° C. IL-2 concentrations in the plasma were determined by AlphaLISA IL-2 assay (Perkin Elmer). Data analysis was performed using GraphPad PRISM5.

SMILES | IC50 [nM]
Cc1sc(-c2ccncc2)nc1-c1cnc2c(c1)OCC(c1c(F)cccc1F)N2 (stereo not shown) [Example 6, 3-(2,6-Difluoro-phenyl)-7-(5-methyl-2-pyridin-4-yl-thiazol-4-yl)-3,4-dihydro-2H-pyrido[3,2-b][1,4]oxazine] | 4520
Cc1sc(-c2ccccn2)nc1-c1cnc2c(c1)OCC(c1c(F)cccc1F)N2 (stereo not shown) [Example 4, 3-(2,6-Difluoro-phenyl)-7-(5-methyl-2-pyridin-2-yl-thiazol-4-yl)-3,4-dihydro-2H-pyrido[3,2-b][1,4]oxazine] | 6300
CCn1nc(-c2cnccn2)cc1-c1cnc2c(c1)OCC(c1c(F)cccc1F)N2 (stereo not shown) [Example 3, 3-(2,6-Difluoro-phenyl)-7-(2-ethyl-5-pyrazin-2-yl-2H-pyrazol-3-yl)-3,4-dihydro-2H-pyrido[3,2-b][1,4]oxazine] | 2400
CCc1sc(-c2cccnc2)nc1-c1cnc2c(c1)OCC(c1c(F)cccc1F)N2 (stereo not shown) [Example 5, 3-(2,6-Difluoro-phenyl)-7-(5-ethyl-2-pyridin-3-yl-thiazol-4-yl)-3,4-dihydro-2H-pyrido[3,2-b][1,4]oxazine] | 560
CCn1nc(-c2cccnc2)cc1-c1cnc2c(c1)OCC(c1c(F)cccc1F)N2 (stereo not shown) [Example 2, 3-(2,6-Difluoro-phenyl)-7-(2-ethyl-5-pyridin-3-yl-2H-pyrazol-3-yl)-3,4-dihydro-2H-pyrido[3,2-b][1,4]oxazine] | 2680
Cc1ccc(-c2ncco2)cc1-c1cnc2c(c1)OCC(c1c(F)cccc1F)N2 (stereo not shown) [Example 7, 3-(2,6-Difluoro-phenyl)-7-(2-methyl-5-oxazol-2-yl-phenyl)-3,4-dihydro-2H-pyrido[3,2-b][1,4]oxazine] | 8160

The compounds below were run on Jurkat cell (assay: Jurkat IL-2 Production Assay). Conditions: Homo sapiens, serum condition (1% FBS/PHA or 30% FBS/PMA-ionomycin) not specified.
Format: cell-based
Procedure: Jurkat IL-2 Production Assay
Cell: Jurkat cell (ATCC) was grown in RPMI 1640 with 10% FBS and 1% penicillin/streptomycin. The cell density was kept at 1.2˜18×10^6/mL in culture flask before seeding into culture plate, and the cell density in the plate was 0.5×10^6/200 μL/well.
Culture media: RPMI 1640 with 1% FBS or 30% FBS for high serum assay.
Test compound: serial dilution was done in 100% DMSO, and intermediate dilution was done with RPMI 1640 medium with 1% FBS. The DMSO final concentration in culture well was 0.25%.
Stimulant: PHA (Sigma#L9017-10MG) was used for the assay with 1% F/BS in culture medium, and added after 10 minutes exposure of cell to compound/DMSO. The PHA final concentration in culture well was 5 μg/mL. PMA (Sigma#P-8139 5MG)/Ionomycin (Sigma# I0634-5MG) was used for the assay with 30% FBS in culture medium, and added at same time point as the 1% FBS culture assay. The final concentration of PMA was […], and lonomycin final concentration was 500 ng/mL.
Incubation: at 37° C. with 5% CO2 and 95% humidity for 18 h˜20 h.
IC50: IC50 was calculated with the data analysis software XLfit4, General Pharmacology model 251.

SMILES | IC50 [nM]
CCn1nc(C(F)(F)F)cc1-c1cnc2c(c1)OCC(c1c(F)cccc1F)N2 (stereo not shown) [Example 1, 3-(2,6-Difluoro-phenyl)-7-(2-ethyl-5-trifluoromethyl-2H-pyrazol-3-yl)-3,4-dihydro-2H-pyrido[3,2-b][1,4]oxazine] | 140

Reference: patent publication US20130090334A1, “AZABENZOXAZINE DERIVATIVES AS CRAC MODULATORS” (Hoffmann-La Roche Inc, priority 2011, published 2013)
